Columns and labels:
m1 receptor = target: T1, m1 receptor (Homo sapiens, UniProt P11229); assay: R-SAT / NIH 3T3 cells transfected with m1 muscarinic receptor; assay type: cell-based
T1 construct: expressed in transfected cells; host or cells: NIH 3T3 (ATCC CRL 1658)
T1 sequence (P11229 1-460): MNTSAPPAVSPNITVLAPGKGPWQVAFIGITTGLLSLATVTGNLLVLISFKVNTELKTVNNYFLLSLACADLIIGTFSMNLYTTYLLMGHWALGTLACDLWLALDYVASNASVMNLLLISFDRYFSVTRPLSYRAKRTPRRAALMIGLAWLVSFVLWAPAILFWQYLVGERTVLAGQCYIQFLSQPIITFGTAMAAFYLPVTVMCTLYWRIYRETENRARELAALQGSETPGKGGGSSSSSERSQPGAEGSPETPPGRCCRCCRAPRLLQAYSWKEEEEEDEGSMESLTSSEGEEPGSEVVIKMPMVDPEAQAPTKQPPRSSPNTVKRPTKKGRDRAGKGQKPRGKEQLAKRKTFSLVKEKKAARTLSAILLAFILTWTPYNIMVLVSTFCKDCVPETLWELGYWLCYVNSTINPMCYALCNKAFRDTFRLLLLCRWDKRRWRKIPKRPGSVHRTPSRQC
Protocol: Cell amplification is detected as increased levels of a marker also expressed by the cells.
The cells were treated with trypsin-EDTA, spun down and plated at 2×10^6 per 15 cm dish in 20 m1 of DMEM containing 10% calf serum.
On day one, the cells were transfected using the Superfect transfection reagent (available from Qiagen, Valencia, Calif.) in accordance with the manufacturer's instructions. Receptor DNA, β-gal DNA (pSI-β-galactosidase available from Promega, Madison, Wis.), chimeric Gq-i5 DNA for the m2 and m4 receptor subtype assays, and salmon sperm DNA (available from Sigma, St. Louis, […].) as filler to a total of 20 μg DNA was added per plate. Prior to addition to the plates, 60 μl Superfect was added to the DNA and mixed thoroughly by pipetting up and down several times. The mixture was incubated at room temperature for 10-15 minutes. The media were aspirated, and 12 ml fresh DMEM containing 10% calf serum and 50 units/m1 penicillin/streptomycin was added to the plates. The DNA-Superfect solution was mixed once more with a pipette and added to the plate which was swirled to distribute the DNA mixture evenly over the surface. The cells were incubated overnight at 37° C. and 5% CO2. After incubation, the media were aspirated and the plates were rinsed once with a 15 m1 volume of Hank's Buffered Saline. The plates were swirled to ensure thorough rinsing. 20 m1 fresh DMEM supplemented with 10% calf serum and 50 units/m1 penicillin/streptomycin was added to the plates. The cells were incubated for 24-48 hours until the plates were 100% confluent.
Assay of NIH 3T3 cells transfected with muscarinic receptor subtypes (general procedure) DMEM containing 2% Cyto-SF3 was heated at 37° C. in a water bath under sterile conditions. Sterile working stock solutions of test compounds to be assayed were prepared by diluting the compounds in DMEM to 8× the final concentration for testing. The compound (carbachol) to be included in the assay as a positive control was also diluted in DMEM to 8× the final concentration. 50 μL of the DMEM containing 2% Cyto-SF3 was added to each well of 96-well microtiter plates under sterile conditions. Then, 16 of compound solutions were added to the top wells of the plates, and dilution of the solutions was performed by taking 16 μl of the compound solutions from the top wells and pipetting them into the next row of wells. This procedure was repeated with each subsequent row of wells, except that 50 μl medium alone was added to the baseline control wells (the wells that contain medium and cells, but not test compounds) and plate control wells (wells containing medium, but not test compounds and cells). The plates were then placed in an incubator at 37° C. to equilibrate temperature and pH.
When the cell cultures had reached 100% confluence, the medium was aspirated and each plate was rinsed with 15 m1 Hank's Buffered Saline (HBS). The cells were left in the incubator for about 10-15 minutes until the HBS had turned slightly yellow. The HBS was then aspirated and 1 m1 trypsin was added to each plate and swirled so as to completely cover the plates. The edges of the plates were gently rapped several times to loosen the cells. After the cells had been dislodged from the surface, 8 m1 DMEM containing 10% calf serum and 50 units/m1 penicillin and 50 units/m1 streptomycin was added to inhibit the trypsin. The plates were rinsed with this medium, and the cells were pipetted into a tube. The cells were centrifuged at 1000 rpm for 5-10 min. in an IEC Centra CL2 centrifuge (produced by Sorvall). Afterwards, the medium was carefully aspirated so as not to dislodge the cells. The cell pellet was suspended in 1600 μl DMEM containing 10% calf serum and 50 units/m1 penicillin and 50 units/m1 streptomycin, after which 20 m1 DMEM supplemented with 2% Cyto-SF3 was added. 50 μl aliquots of this cell suspension was added to the wells of the 96-well microtiter plates prepared above (except for the plate control wells).

[1] = target: T2, α-adrenergic receptor subtype 1B (Homo sapiens, UniProt P35368); assay: Test against other receptors: α-adrenergic 1B; assay type: cell-based
T2 sequence (P35368 1-520): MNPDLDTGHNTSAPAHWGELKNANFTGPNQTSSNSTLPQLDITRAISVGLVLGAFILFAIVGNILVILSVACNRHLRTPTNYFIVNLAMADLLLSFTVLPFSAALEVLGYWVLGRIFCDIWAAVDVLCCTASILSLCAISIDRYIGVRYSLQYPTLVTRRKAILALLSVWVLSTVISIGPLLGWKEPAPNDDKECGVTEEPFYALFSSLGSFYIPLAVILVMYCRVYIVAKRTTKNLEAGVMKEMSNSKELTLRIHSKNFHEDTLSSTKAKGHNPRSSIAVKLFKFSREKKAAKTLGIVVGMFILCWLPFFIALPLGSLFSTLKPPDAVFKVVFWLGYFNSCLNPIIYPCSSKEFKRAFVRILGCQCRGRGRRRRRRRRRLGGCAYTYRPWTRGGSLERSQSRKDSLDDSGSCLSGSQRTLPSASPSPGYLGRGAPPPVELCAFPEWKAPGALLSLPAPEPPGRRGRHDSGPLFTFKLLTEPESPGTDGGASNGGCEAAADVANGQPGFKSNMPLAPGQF

CCCCC1CCN(CCCC(=O)c2ccccc2C)CC1 [Compound A, 4-n-Butyl-1-[4-(2-methylphenyl)-4-oxo-1-butyl]piperidine]
Emax at 1.5 µM (m1 receptor; NIH3T3, m1, compound at 1.5 μM, maximum = response to 10 μM carbachol, read-out: Cellular response as a percentage of the maximum response of the cells): 107% | antagonism of carbachol-induced responses (m1 receptor; m1): not an antagonist | maximal response relative to reference compound carbachol (m1 receptor; m1 receptor): lower maximal response than the reference compound carbachol | agonist activity at the m1 receptor (m1 receptor; receptor transfected into separate cell cultures): potent partial agonist | agonist activity [1]: no significant activity

From patent US7485651B2, “Compounds with activity on muscarinic receptors” (Acadia Pharmaceuticals, Inc., priority 1998, dated 2009)
